Like-named read-outs stand apart in the source and are kept apart here.
Experiments:
Type in all cases: in vivo
[1] = test system: bermudagrass (Cynodon dactylon); assay: Test B pre-/postemergence plant response; details: Postemergence
Description: (§1) Seeds of plant species selected from blackgrass (Alopecurus myosuroides), downy bromegrass (Bromus tectorum), green foxtail (Setaria viridis), Italian ryegrass (Lolium multiflorum), wheat (Triticum aestivum), wild oat (Avena fatua), deadnettle (henbit deadnettle, Lamium amplexicaule), galium (catchweed bedstraw, Galium aparine), bermudagrass (Cynodon dactylon), Surinam grass (Brachiaria decumbens), cocklebur (Xanthium strumarium), corn (Zea mays), large crabgrass (Digitaria sanguinalis), woolly cupgrass (Eriochloa villosa), giant foxtail (Setaria faberii), goosegrass (Eleusine indica), johnsongrass (Sorghum halepense), kochia (Kochia scoparia), lambsquarters (Chenopodium album), morningglory (Ipomoea coccinea), nightshade (eastern black nightshade, Solanum ptycanthum), yellow nutsedge (Cyperus esculentus), pigweed (Amaranthus retroflexus), ragweed (common ragweed, Ambrosia elatior), Russian thistle (Salsola kali), soybean (Glycine max), sunflower (common oilseed sunflower, Helianthus annuus) and velvetleaf (Abutilon theophrasti) were planted into a blend of loam soil and sand and treated preemergence with test compounds formulated in a non-phytotoxic solvent mixture which included a surfactant.
(§2) At the same time, plants selected from these crop and weed species and also winter barley (Hordeum vulgare), canarygrass (Phalaris minor), chickweed (Stellaria media) and windgrass (Apera spica-venti) were planted in pots containing Redi-Earth® planting medium (Scotts Company, 14111 Scottslawn Road, Marysville, Ohio 43041) comprising spaghnum peat moss, vermiculite, wetting agent and starter nutrients and treated with postemergence applications of some of the test chemicals formulated in the same manner. Plants ranged in height from 2 to 18 cm (1- to 4-leaf stage) for postemergence treatments.
(§3) Treated plants and controls were maintained in a greenhouse for 13 to 15 days, after which time all treated plants were visually evaluated and compared to controls. Plant response ratings, summarized in Table B, are based on a scale of 0 to 100 where 0 is no effect and 100 is complete control. A dash (-) response means no test result.

[2] = test system: wheat (Triticum aestivum); assay: Test B pre-/postemergence plant response; details: Postemergence
Description: as §1, §2, §3

[3] = test system: pigweed (Amaranthus retroflexus); assay: Test A pre-/postemergence plant response; details: for pest or weed control at 125 g/ha / pest or weed control at 500 g/ha: Amaranthus retroflexus, 240 h
How it was run: (§4)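 Injury was scored visually after roughly ten days against untreated controls, 0 = no effect, 100 = complete control. Test chemicals in a surfactant-containing non-phytotoxic solvent were sprayed either onto soil preemergence or onto one- to two-leaf, 2–10 cm plants postemergence.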

[4] = test system: morningglory (Ipomoea spp.); assay: Test A pre-/postemergence plant response; details: for pest or weed control at 125 g/ha: read-out: Plant response rating, Morningglory
How it was run: as §4

[5] = test system: velvetleaf (Abutilon theophrasti); assay: Test A pre-/postemergence plant response; details: for pest or weed control at 125 g/ha / pest or weed control at 500 g/ha: Abutilon theophrasti, 240 h
How it was run: as §4

[6] = test system: corn (Zea mays); assay: Test A pre-/postemergence plant response
How it was run: as §4

[7] = test system: wheat (Triticum aestivum); assay: Test A pre-/postemergence plant response; details: for plant injury at 125 g/ha / plant injury at 500 g/ha: Triticum aestivum, 240 h
How it was run: as §4

[8] = test system: giant foxtail (Setaria faberii); assay: Test A pre-/postemergence plant response; details: for pest or weed control at 125 g/ha / pest or weed control at 500 g/ha: Setaria faberi, 240 h
How it was run: as §4

[9] = test system: barnyardgrass (Echinochloa crus-galli); assay: Test A pre-/postemergence plant response; details: for Plant response rating, Barnyardgrass / pest or weed control at 125 g/ha: 125 g ai/ha; for pest or weed control at 125 g/ha / pest or weed control at 500 g/ha: Echinochloa crus-galli, 240 h
How it was run: as §4

[10] = test system: large crabgrass (Digitaria sanguinalis); assay: Test A pre-/postemergence plant response; details: for pest or weed control at 125 g/ha / pest or weed control at 500 g/ha: Digitaria sanguinalis, 240 h
How it was run: as §4

[11] = 31 g ai/ha, 0 to 100 scale (0 no effect, 100 complete control)
[12] = 125 g ai/ha, scale 0 (no effect) to 100 (complete control), 13 to 15 days
[13] = 250 g ai/ha, scale 0 to 100 (0 no effect, 100 complete control), 13 to 15 days
[14] = 62 g ai/ha, scale 0 to 100 (0 no effect, 100 complete control)
[15] = Postemergence, 125 g ai/ha, 0 to 100 scale where 0 is no effect and 100 is complete control
[16] = Postemergence, 500 g ai/ha, visual injury, 0 to 100 scale (0 no effect, 100 complete control), approx. ten days
[17] = Preemergence, 125 g ai/ha, 0 to 100 scale, 0 = no effect, 100 = complete control
[18] = Preemergence, 500 g ai/ha, 0 to 100 scale, 0 = no effect, 100 = complete control

CCCCn1c(-c2ccccc2)ncc(C(=O)C2=C(O)C3CCC(C3)C2=O)c1=O (stereo not shown) [Compound 240]
Plant response rating, Bermudagrass [1, 11]: 98
Plant response rating, Bermudagrass [1, 12]: 100
Plant response rating, Bermudagrass [1, 13]: 100
Plant response rating, Bermudagrass [1, 14]: 100
Plant response rating, Wheat [2, 11]: 30
Plant response rating, Wheat [2, 12]: 50
Plant response rating, Wheat [2, 13]: 50
Plant response rating, Wheat [2, 14]: 35
Plant response rating, Pigweed [3, 15]: 90
Pigweed plant response rating [3, 16]: 100
Plant response rating, Pigweed [3, 17]: 20
Plant response rating, Pigweed [3, 18]: 100
Plant response rating, Morningglory [4, 15]: 100
Morningglory plant response rating [4, 16]: 100
Plant response rating, Morningglory [4, 17]: 0
Plant response rating, Morningglory [4, 18]: 0
Plant response rating, Velvetleaf [5, 15]: 100
Velvetleaf plant response rating [5, 16]: 100
Plant response rating, Velvetleaf [5, 17]: 60
Plant response rating, Velvetleaf [5, 18]: 80
Plant response rating, Corn [6, 15]: 40
Corn plant response rating [6, 16]: 80
Plant response rating, Corn [6, 17]: 0
Plant response rating, Corn [6, 18]: 40
Plant response rating, Wheat [7, 15]: 20
Wheat plant response rating [7, 16]: 40
Plant response rating, Wheat [7, 17]: 0
Plant response rating, Wheat [7, 18]: 40
Plant response rating, Foxtail, Giant [8, 15]: 90
Foxtail, Giant plant response rating [8, 16]: 100
Plant response rating, Foxtail, Giant [8, 17]: 40
Plant response rating, Foxtail, Giant [8, 18]: 80
Plant response rating, Barnyardgrass ([9]; Postemergence, 0 to 100 scale where 0 is no effect and 100 is complete control): 100
Barnyardgrass plant response rating [9, 16]: 100
Plant response rating, Barnyardgrass ([9]; Preemergence, 0 to 100 scale, 0 = no effect, 100 = complete control): 40
Plant response rating, Crabgrass, Large [10, 15]: 90
Crabgrass, Large plant response rating [10, 16]: 100
Plant response rating, Crabgrass, Large [10, 17]: 50
Plant response rating, Crabgrass, Large [10, 18]: 100

O=C(c1cnoc1C1CC1)c1cnc(-c2ccccc2)n(-c2ccccc2)c1=O [Compound 223, 5-[(5-cyclopropyl-4-isoxazolyl)-carbonyl]-2,3-diphenyl-4(3H)-pyrimidinone]
pest or weed control at 125 g/ha ([3]; post-emergence, Postemergence, 125 g ai/ha, 0 to 100 scale where 0 is no effect and 100 is complete control, read-out: Plant response rating, Pigweed): 50%
pest or weed control at 500 g/ha ([3]; post-emergence, Postemergence, 500 g ai/ha, visual injury, 0 to 100 scale (0 no effect, 100 complete control), approx. ten days, read-out: Pigweed plant response rating): 70%
pest or weed control at 125 g/ha ([3]; pre-emergence, Preemergence, 125 g ai/ha, 0 to 100 scale, 0 = no effect, 100 = complete control, read-out: Plant response rating, Pigweed): 60%
pest or weed control at 500 g/ha ([3]; pre-emergence, Preemergence, 500 g ai/ha, 0 to 100 scale, 0 = no effect, 100 = complete control, read-out: Plant response rating, Pigweed): 90%
pest or weed control at 125 g/ha ([4]; Ipomoea, post-emergence, 240 h, Postemergence, 125 g ai/ha, 0 to 100 scale where 0 is no effect and 100 is complete control): 60%
pest or weed control at 500 g/ha ([4]; Ipomoea, post-emergence, 240 h, Postemergence, 500 g ai/ha, visual injury, 0 to 100 scale (0 no effect, 100 complete control), approx. ten days, read-out: Morningglory plant response rating): 80%
pest or weed control at 125 g/ha ([4]; Ipomoea, pre-emergence, 240 h, Preemergence, 125 g ai/ha, 0 to 100 scale, 0 = no effect, 100 = complete control): 10%
pest or weed control at 125 g/ha ([5]; post-emergence, Postemergence, 125 g ai/ha, 0 to 100 scale where 0 is no effect and 100 is complete control, read-out: Plant response rating, Velvetleaf): 50%
pest or weed control at 500 g/ha ([5]; post-emergence, Postemergence, 500 g ai/ha, visual injury, 0 to 100 scale (0 no effect, 100 complete control), approx. ten days, read-out: Velvetleaf plant response rating): 80%
pest or weed control at 125 g/ha ([5]; pre-emergence, Preemergence, 125 g ai/ha, 0 to 100 scale, 0 = no effect, 100 = complete control, read-out: Plant response rating, Velvetleaf): 0%
pest or weed control at 500 g/ha ([5]; pre-emergence, Preemergence, 500 g ai/ha, 0 to 100 scale, 0 = no effect, 100 = complete control, read-out: Plant response rating, Velvetleaf): 60%
Corn plant response rating (crop injury, 0 = no effect, 100 = complete kill) at 125 g/ha ([6]; Zea mays, post-emergence, 240 h, Postemergence, 125 g ai/ha, 0 to 100 scale where 0 is no effect and 100 is complete control): 0%
plant injury at 500 g/ha ([6]; Zea mays, post-emergence, 240 h, Postemergence, 500 g ai/ha, visual injury, 0 to 100 scale (0 no effect, 100 complete control), approx. ten days, read-out: Corn plant response rating): 20%
Corn plant response rating (crop injury, 0 = no effect, 100 = complete kill) at 125 g/ha ([6]; Zea mays, pre-emergence, 240 h, Preemergence, 125 g ai/ha, 0 to 100 scale, 0 = no effect, 100 = complete control): 0%
Corn plant response rating (crop injury, 0 = no effect, 100 = complete kill) at 500 g/ha ([6]; Zea mays, pre-emergence, 240 h, Preemergence, 500 g ai/ha, 0 to 100 scale, 0 = no effect, 100 = complete control): 0%
plant injury at 125 g/ha ([7]; post-emergence, Postemergence, 125 g ai/ha, 0 to 100 scale where 0 is no effect and 100 is complete control, read-out: Plant response rating, Wheat): 0%
plant injury at 500 g/ha ([7]; post-emergence, Postemergence, 500 g ai/ha, visual injury, 0 to 100 scale (0 no effect, 100 complete control), approx. ten days, read-out: Wheat plant response rating): 0%
plant injury at 125 g/ha ([7]; pre-emergence, Preemergence, 125 g ai/ha, 0 to 100 scale, 0 = no effect, 100 = complete control, read-out: Plant response rating, Wheat): 0%
plant injury at 500 g/ha ([7]; pre-emergence, Preemergence, 500 g ai/ha, 0 to 100 scale, 0 = no effect, 100 = complete control, read-out: Plant response rating, Wheat): 0%
pest or weed control at 125 g/ha ([8]; post-emergence, Postemergence, 125 g ai/ha, 0 to 100 scale where 0 is no effect and 100 is complete control, read-out: Plant response rating, Foxtail, Giant): 0%
pest or weed control at 500 g/ha ([8]; post-emergence, Postemergence, 500 g ai/ha, visual injury, 0 to 100 scale (0 no effect, 100 complete control), approx. ten days, read-out: Foxtail, Giant plant response rating): 70%
pest or weed control at 125 g/ha ([8]; pre-emergence, Preemergence, 125 g ai/ha, 0 to 100 scale, 0 = no effect, 100 = complete control, read-out: Plant response rating, Foxtail, Giant): 30%
pest or weed control at 500 g/ha ([8]; pre-emergence, Preemergence, 500 g ai/ha, 0 to 100 scale, 0 = no effect, 100 = complete control, read-out: Plant response rating, Foxtail, Giant): 90%
pest or weed control at 125 g/ha ([9]; post-emergence, Postemergence, 0 to 100 scale where 0 is no effect and 100 is complete control, read-out: Plant response rating, Barnyardgrass): 0%
pest or weed control at 500 g/ha ([9]; post-emergence, Postemergence, 500 g ai/ha, visual injury, 0 to 100 scale (0 no effect, 100 complete control), approx. ten days, read-out: Barnyardgrass plant response rating): 50%
pest or weed control at 125 g/ha ([9]; pre-emergence, Preemergence, 0 to 100 scale, 0 = no effect, 100 = complete control, read-out: Plant response rating, Barnyardgrass): 0%
pest or weed control at 500 g/ha ([9]; pre-emergence, Preemergence, 500 g ai/ha, 0 to 100 scale, 0 = no effect, 100 = complete control, read-out: Plant response rating, Barnyardgrass): 70%
pest or weed control at 125 g/ha ([10]; post-emergence, Postemergence, 125 g ai/ha, 0 to 100 scale where 0 is no effect and 100 is complete control, read-out: Plant response rating, Crabgrass, Large): 0%
pest or weed control at 500 g/ha ([10]; post-emergence, Postemergence, 500 g ai/ha, visual injury, 0 to 100 scale (0 no effect, 100 complete control), approx. ten days, read-out: Crabgrass, Large plant response rating): 60%
pest or weed control at 125 g/ha ([10]; pre-emergence, Preemergence, 125 g ai/ha, 0 to 100 scale, 0 = no effect, 100 = complete control, read-out: Plant response rating, Crabgrass, Large): 30%
pest or weed control at 500 g/ha ([10]; pre-emergence, Preemergence, 500 g ai/ha, 0 to 100 scale, 0 = no effect, 100 = complete control, read-out: Plant response rating, Crabgrass, Large): 80%

Source: patent US8952024B2, “Herbicidal pyrimidone derivatives” (E I du Pont de Nemours and Company, priority 2009, dated 2015)
